# Results published in patent US10414797B2, “Gelatinase inhibitors and use thereof” (Iproteos S.L, priority 2015, dated 2019).
# Where a SMILES comes first, the peptide text is derived from it. [ ]: non-standard residue; d: D form. The star is where a group is joined. ξ: configuration not given here. NMeIle(3ξ) = CCC(C)[C@H](NC)C(=O)O; NMeQ = CN[C@@H](CCC(N)=O)C(=O)O; Ile(3ξ) = CCC(C)[C@H](N)C(=O)O; Hexanoyl = CCCCCC(=O)*; NHOH = ON*
# Assays:
# MMP-9 = MMP-9 inhibition assay (fluorimetric, DQ gelatin substrate); format: biochemical; details: recombinant MMP-9 (Merck-Millipore for examples 1 to 9 and comparative examples; Enzo for examples 10 to 16), DQ gelatin 50 μg/mL, 4 hours at room temperature, pH 7.6
# Chain of MMP-9 (P14780 107-707 limits assumed): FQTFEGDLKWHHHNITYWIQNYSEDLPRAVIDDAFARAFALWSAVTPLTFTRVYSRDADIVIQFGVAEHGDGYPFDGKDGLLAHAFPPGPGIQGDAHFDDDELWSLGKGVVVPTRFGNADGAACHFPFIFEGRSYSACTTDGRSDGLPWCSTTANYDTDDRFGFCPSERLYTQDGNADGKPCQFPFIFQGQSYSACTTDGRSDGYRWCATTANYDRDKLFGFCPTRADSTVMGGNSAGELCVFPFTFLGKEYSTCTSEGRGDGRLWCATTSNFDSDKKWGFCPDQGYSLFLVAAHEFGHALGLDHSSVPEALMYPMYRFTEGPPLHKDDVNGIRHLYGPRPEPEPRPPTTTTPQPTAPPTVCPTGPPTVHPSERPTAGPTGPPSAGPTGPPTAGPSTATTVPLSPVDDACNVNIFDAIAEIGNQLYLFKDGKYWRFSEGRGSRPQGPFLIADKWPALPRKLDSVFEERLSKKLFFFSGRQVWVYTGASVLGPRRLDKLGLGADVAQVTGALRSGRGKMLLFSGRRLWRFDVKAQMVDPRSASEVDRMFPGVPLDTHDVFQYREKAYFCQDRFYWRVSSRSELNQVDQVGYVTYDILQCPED
# Method: (§1) All the experiments were done in 1× reaction buffer, which was obtained from a 10× reaction buffer solution. The content of the 10× reaction buffer was: 50 mL of 0.5 M Tris-HCl, 1.5 M NaCl, 50 mM CaCl2 and 2 mM sodium azide at pH 7.6. To obtain the 1× reaction buffer 4 mL of the 10× reaction buffer were diluted in 36 mL of H2O.
# Recombinant MMP-9 expressed was obtained from Merck-Millipore (catalog number PF140-5UG, used in examples 1 to 9 and comparative examples) and Enzo (catalog number-SE360-0010, used in examples 10 to 16). DQ gelatin from pig skin fluorescein conjugated (MMP-9 substrate) was obtained from Life Technologies (catalog number E12055).
# Preparation of the MMP-9 for the activity assay: MMP-9 was provided as a stock solution (0.1 mg/mL). The enzyme was diluted in 1× reaction buffer to a final concentration of 5 μg/mL.
# (§2) Preparation of the DQ gelatin (substrate) solution for the activity assay: the solid form of the substrate was dissolved in water in order to obtain a stock solution of 1 mg/mL.
# (§3) Procedure: The enzymatic assays were performed in 96-well microtiter plate, which allowed simultaneous monitoring of multiple reactions. For each reaction, 84.6 μL of 1× reaction buffer (pH 7.6), 3.4 μL of MMP-9 (final concentration 85 ng/mL) and 2 μL of the corresponding new compound were added to each well. A stock solution of new compound was prepared in DMSO (100 mM), and dilutions were prepared from this stock solution with DMSO. Finally, to the mixture contained in each well 10 μL of the substrate were added (final concentration 50 μg/mL). The reaction was incubated for 4 hours at room temperature in an orbital shaker (100 rpm).
# (§4) The inhibitory activity of the new compound was measured fluorimetrically. The excitation and emission wavelengths were 483 and 525 nm, respectively.
# (§5) Inhibitory activity at several concentration points (ranging from 100 pM to 200 μM MMP) were measured for each compound. The inhibitory activity on MMP-2 and MMP-9 was calculated according to eq 1. For each new compound, the fluorescence in the presence (a) and in the absence (b) of the corresponding MMP was measured. The maximum fluorescence (0% inhibitory activity) was obtained from a sample of the corresponding MMP in the absence of inhibitory compounds. To estimate the inhibitory potency of the novel compounds, activities were plotted against the log concentration of the compound, adjusting to a sigmoid curve using GraphPad Prism software, and the IC50 value, defined as the concentration of compound required to inhibit 50% of the corresponding MMP activity, was determined from resulting curve.
# (§6) a corresponds to fluorescence intensity in the presence of substrate+test compound+MMP
# (§7) b corresponds to the fluorescence intensity in the presence of substrate+tested compound
# (§8) c corresponds to the fluorescence intensity in the presence of substrate+MMP
# (§9) d corresponds to the fluorescence intensity of the presence of substrate
# MMP-2 = MMP-2 (Homo sapiens (Human), UniProt P08253); assay: MMP-2 inhibition assay (fluorimetric, DQ gelatin substrate); format: biochemical; details: recombinant MMP-2 (CHO cells) 85 ng/mL, DQ gelatin 50 μg/mL, 2 hours at room temperature, pH 7.6
# Chain of MMP-2 (P08253 110-660): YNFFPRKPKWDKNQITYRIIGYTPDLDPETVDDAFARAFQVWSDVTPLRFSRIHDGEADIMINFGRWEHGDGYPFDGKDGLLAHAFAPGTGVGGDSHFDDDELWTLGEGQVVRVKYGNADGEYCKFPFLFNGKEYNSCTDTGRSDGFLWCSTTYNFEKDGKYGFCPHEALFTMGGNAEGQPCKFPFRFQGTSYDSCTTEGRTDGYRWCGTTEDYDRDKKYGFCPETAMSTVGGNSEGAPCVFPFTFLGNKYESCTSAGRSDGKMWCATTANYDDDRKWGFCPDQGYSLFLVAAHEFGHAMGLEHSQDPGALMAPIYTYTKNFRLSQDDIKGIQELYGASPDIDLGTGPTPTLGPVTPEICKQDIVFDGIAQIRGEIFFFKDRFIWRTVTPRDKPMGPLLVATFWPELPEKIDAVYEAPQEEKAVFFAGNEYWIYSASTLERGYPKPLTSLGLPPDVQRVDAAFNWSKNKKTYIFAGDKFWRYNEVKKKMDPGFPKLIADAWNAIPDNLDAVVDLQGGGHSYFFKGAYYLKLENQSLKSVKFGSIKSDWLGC
# Method: as §1
# Recombinant MMP-2 expressed in Chinese hamster ovary (CHO) cells was obtained from Merck-Millipore (catalog number PF023-5UG). DQ gelatin from pig skin fluorescein conjugated (MMP-2 substrate) was obtained from Life Technologies (catalog number E12055).
# Preparation of the MMP-2 for the activity assay: MMP-2 was provided as a stock solution (0.1 mg/mL). The enzyme was diluted in 1× reaction buffer to a final concentration of 5 μg/mL.
# as §2
# as §3, with “86.3” for “84.6”, “1.7” for “3.4”, “MMP-2” for “MMP-9”, “2” for “4”
# as §4, §5, §6, §7, §8, §9
IC50 (MMP-9),IC50 (MMP-2),Structure (SMILES)
16 µM,110 µM,"CCC(C)[C@@H](C(=O)N[C@@H](Cc1c[nH]c2ccccc12)C(=O)NO)N(C)C(=O)[C@@H]1CCCN1C(C)=O (stereo partly drawn) [Example C21, (2S)-1-acetyl-N-[(1S)-1-[[(1S)-2-(hydroxyamino)-1-(1H-indol-3-ylmethyl)-2-oxo-ethyl]carbamoyl]-2-methyl-butyl]-N-methyl-pyrrolidine-2-carboxamide, reference compound] (Ac-Pro-[NMeIle(3ξ)]-Trp-{NHOH})"
> 1000 µM,> 2000 µM,"CCCCCC(=O)N1CCC[C@H]1C(=O)N(C)[C@@H](CCC(N)=O)C(=O)N[C@@H](Cc1c[nH]c2ccccc12)C(=O)NO [Example C23, (2S)-2-[[(SS)-1-hexanoylpyrrolidine-2-carbonyl)-methyl-amino]-N-[(1S)-2-(hydroxyamino)-1-(1H-indol-3-ylmethyl)-2-oxo-ethyl]pentanediamide, reference compound] (Hexanoyl-Pro-[NMeQ]-Trp-{NHOH})"
240 µM,710 µM,"CCC(C)[C@H](NC(=O)[C@H](Cc1c[nH]c2ccccc12)NC(=O)[C@H](CCC(N)=O)NC(C)=O)C(=O)NO (stereo partly drawn) [Example C18, (2 S)-2-acetamido-N-[(1S)-2-[[(1S)-1-(hydroxycarbamoyl)-2-methyl-butyl]amino]-1-(1H-indol-3-ylmethyl)-2-oxo-ethyl]pentanediamide, reference compound] (Ac-Gln-Trp-[Ile(3ξ)]-{NHOH})"
> 2000 µM,> 2000 µM,"CCC(C)[C@H](NC(=O)[C@@H]1CCCN1C(=O)[C@H](CCC(N)=O)NC(C)=O)C(=O)NO (stereo partly drawn) [Example C19, (2S)-1-[(2S)-2-acetamido-5-amino-5-oxo-pentanoyl]-N-[(1S)-1-(hydroxycarbamoyl)-2-methyl-butyl]pyrrolidine-2-carboxamide, reference compound] (Ac-Gln-Pro-[Ile(3ξ)]-{NHOH})"
